Laboratory results published in EPA's CvTdb concentration-time database.
Where “and” joins values, the source holds several entries; their conditions need not be identical. Identical values can stand only once.

Experiments:
Rat [1] = assay: concentration in plasma after dosing; settings: dosed: Phenolphthalein, 25 mg/kg, iv, Female, F344
Rat [2] = assay: concentration in plasma after dosing; settings: dosed: Phenolphthalein, 25 mg/kg, iv, Male, F344
Rat [3] = assay: concentration in plasma after dosing; settings: dosed: Phenolphthalein, 25 mg/kg, iv, Male, F344; remark: listed apart in the source
Rat [4] = assay: concentration in plasma after dosing; settings: dosed: Phenolphthalein, 25 mg/kg, iv, Female, F344; remark: listed apart in the source
Rat [5] = assay: concentration in plasma after dosing; settings: 16 h; dosed: Phenolphthalein; 25 mg/kg; iv; Male; F344
Rat [6] = assay: concentration in plasma after dosing; settings: dosed: Phenolphthalein, 25 mg/kg, iv, Female, F344; remark: listed apart in the source
Rat [7] = assay: concentration in plasma after dosing; settings: 12 h; dosed: Phenolphthalein; 25 mg/kg; iv; Female; F344
Rat [8] = assay: concentration in plasma after dosing; settings: dosed: Phenolphthalein, 25 mg/kg, iv, Male, F344; remark: listed apart in the source
Rat [9] = assay: concentration in plasma after dosing; settings: dosed: Phenolphthalein, 25 mg/kg, iv, Female, F344; remark: listed apart in the source
Rat [10] = assay: concentration in plasma after dosing; settings: dosed: Phenolphthalein, 25 mg/kg, iv, Female, F344; remark: listed apart in the source
Rat [11] = assay: concentration in plasma after dosing; settings: dosed: Phenolphthalein, 25 mg/kg, iv, Male, F344; remark: listed apart in the source
Rat [12] = assay: concentration in plasma after dosing; settings: dosed: Phenolphthalein, 25 mg/kg, iv, Female, F344; remark: listed apart in the source
Rat [13] = assay: concentration in plasma after dosing; settings: dosed: Phenolphthalein, 25 mg/kg, iv, Male, F344; remark: listed apart in the source
Rat [14] = assay: concentration in plasma after dosing; settings: dosed: Phenolphthalein, 25 mg/kg, iv, Female, F344; remark: listed apart in the source
Rat [15] = assay: concentration in plasma after dosing; settings: 16 h; dosed: Phenolphthalein; 25 mg/kg; iv; Female; F344
Rat [16] = assay: concentration in plasma after dosing; settings: dosed: Phenolphthalein, 25 mg/kg, iv, Female, F344; remark: listed apart in the source
Rat [17] = assay: concentration in plasma after dosing; settings: 16 h; dosed: Phenolphthalein; 25 mg/kg; iv; Female; F344; remark: listed apart in the source
Rat [18] = assay: concentration in plasma after dosing; settings: dosed: Phenolphthalein, 25 mg/kg, iv, Female, F344; remark: listed apart in the source
Rat [19] = assay: concentration in plasma after dosing; settings: dosed: Phenolphthalein, 25 mg/kg, iv, Male, F344; remark: listed apart in the source
Rat [20] = assay: concentration in plasma after dosing; settings: dosed: Phenolphthalein, 25 mg/kg, iv, Male, F344; remark: listed apart in the source
Rat [21] = assay: concentration in plasma after dosing; settings: dosed: Phenolphthalein, 25 mg/kg, iv, Female, F344; remark: listed apart in the source
Rat [22] = assay: concentration in plasma after dosing; settings: dosed: Phenolphthalein, 25 mg/kg, iv, F344
Rat [23] = assay: concentration in plasma after dosing; settings: dosed: Phenolphthalein, 25 mg/kg, iv, Male, F344; remark: listed apart in the source
Rat [24] = assay: concentration in plasma after dosing; settings: dosed: Phenolphthalein, 25 mg/kg, iv, Female, F344; remark: listed apart in the source
Rat [25] = assay: concentration in plasma after dosing; settings: dosed: Phenolphthalein, 25 mg/kg, iv, Male, F344; remark: listed apart in the source
Rat [26] = assay: concentration in plasma after dosing; settings: dosed: Phenolphthalein, 25 mg/kg, iv, Female, F344; remark: listed apart in the source
Rat [27] = assay: concentration in plasma after dosing; settings: dosed: Phenolphthalein, 25 mg/kg, iv, Female, F344; remark: listed apart in the source
Rat [28] = assay: concentration in plasma after dosing; settings: dosed: Phenolphthalein, 25 mg/kg, iv, Male, F344; remark: listed apart in the source
Rat [29] = assay: concentration in plasma after dosing; settings: dosed: Phenolphthalein, 25 mg/kg, iv, Male, F344; remark: listed apart in the source
Rat [30] = assay: concentration in plasma after dosing; settings: dosed: Phenolphthalein, 25 mg/kg, iv, Male, F344; remark: listed apart in the source
Rat [31] = assay: concentration in plasma after dosing; settings: 16 h; dosed: Phenolphthalein; 25 mg/kg; iv; Male; F344; remark: listed apart in the source
Rat [32] = assay: concentration in plasma after dosing; settings: dosed: Phenolphthalein, 25 mg/kg, iv, Male, F344; remark: listed apart in the source
rat [33] = assay: amount in expired air after dosing (umol); settings: dosed: methanol, 100 mg/kg, iv, male, CDF(F344)/CrlBR
rat [34] = assay: concentration in blood after dosing; settings: dosed: furan, inhalation, duration: 4 hr, male, Fischer-344

O=C1OC(c2ccc(O)cc2)(c2ccc(O[C@@H]3O[C@H](C(=O)O)[C@@H](O)[C@H](O)[C@H]3O)cc2)c2ccccc21 (stereo not given in full) [Phenolphthalein Glucuronide]
Settings | concentration in plasma [ng/mL]
Rat [1], 5 h | 16900
Rat [1], 10 h | 13300
Rat [2], 4 h | 8240
Rat [2], 7 h | 14400
Rat [3], 3 h | 32000
Rat [3], 12 h | 10500
Rat [4], 5 min | 3250
Rat [4], 24 h | 5140
Rat [6], 5 h | 16500
Rat [6], 10 h | 11300
Rat [8], 5 h | 8040
Rat [8], 10 h | 11300
Rat [9], 2 h | 14600
Rat [9], 8 h | 17000
Rat [10], 1 h | 22300
Rat [10], 6 h | 8560
Rat [11], 2 h | 22600
Rat [11], 8 h | 18600
Rat [12], 4 h | 14000
Rat [12], 7 h | 13700
Rat [13], 5 min | 23700
Rat [13], 24 h | 6100
Rat [14], 1 h | 9080
Rat [14], 6 h | 15200
Rat [16], 2.5 min | 15100
Rat [16], 20 h | 9500
Rat [18], 3 h | 39000
Rat [18], 12 h | 18000
Rat [19], 5 min | 21100
Rat [19], 24 h | 5330
Rat [20], 5 h | 10900
Rat [20], 10 h | 10700
Rat [21], 4 h | 18400
Rat [21], 7 h | 19500
Rat [23], 1 h | 18700
Rat [23], 6 h | 10700
Rat [24], 2 h | 16300
Rat [24], 8 h | 22700
Rat [25], 1 h | 19000
Rat [25], 6 h | 35900
Rat [26], 2.5 min | 10400
Rat [26], 20 h | 8670
Rat [27], 5 min | 69000
Rat [27], 24 h | 14700
Rat [28], 2.5 min | 2320
Rat [28], 20 h | 8550
Rat [29], 2 h | 7950
Rat [29], 8 h | 9110
Rat [30], 4 h | 23300
Rat [30], 7 h | 13100
Rat [32], 3 h | 6590
Rat [32], 12 h | 17300

Settings | concentration in plasma [ng/mL]
Rat [5] | 7180
Rat [7] | 14800
Rat [15] | 21500
Rat [17] | 8150
Rat [31] | 37500

concentration in plasma [ng/mL], Rat [22]
Settings | Female | Male
1 h | 6220 | 13200
2 h | 22800 | 1490
2.5 min | 26600 | 4740
3 h | 47900 | 7190
4 h | 50600 | 4000
5 h | 17900 | 2270
5 min | 49000 | 22300
6 h | 18700 | 11800
7 h | 35300 | 4350
8 h | 16900 | 3650
10 h | 11900 | 5440
12 h | 24900 | 8240
16 h | 8190 | 9210
20 h | 16200 | 8080
24 h | 9270 | 6210

O=C1OC(c2ccc(O)cc2)(c2ccc(O[C@@H]3O[C@H](C(=O)O)[C@@H](O)[C@H](O)[C@H]3O)cc2)c2ccccc21 (stereo not given in full) [Phenolphthalein glucuronide]
Rat [22], Male
Settings | concentration in plasma [ng/mL]
2.5 min | 6980
20 h | 8900

O=C=O [carbon dioxide]
rat [33]
Settings | amount in expired air
0.2199 h | 1.76
0.5362 h | 6.28
0.9412 h | 13.1
1.448 h | 25.8
1.93 h | 37.7
2.933 h | 81.5
4.445 h | 151
5.995 h | 221
8.01 h | 278
10.01 h | 322
12.03 h | 335
15.08 h | 344

c1ccoc1 [furan]
rat [34]
Settings | concentration in blood
0.1053 h, 52 ppm | 111 ng/mL
0.1054 h, 52 ppm | 93 ng/mL
0.1745 h, 107 ppm | 142 ng/mL
0.3024 h, 107 ppm | 101 ng/mL
0.3025 h, 107 ppm | 88.4 ng/mL
0.5398 h, 208 ppm | 98.4 ng/mL
0.54 h, 208 ppm | 82.3 ng/mL
0.7855 h, 208 ppm | 47 ng/mL
0.7856 h, 208 ppm | 41.2 ng/mL
0.7857 h, 208 ppm | 35.7 ng/mL
130 s, 107 ppm | 387 ng/mL and 348 ng/mL
131 s, 107 ppm | 309 ng/mL
132 s, 208 ppm | 945 ng/mL
133 s, 208 ppm | 772 ng/mL and 654 ng/mL
